Results as given in publication PMC4508061, “Selectivity Profiling and Biological Activity of Novel β-Carbolines as Potent and Selective DYRK1 Kinase Inhibitors” (PLoS ONE, 2015).

How the values were obtained:
Experiment in all cases: ProQinase radiometric kinase panel
Settings in all cases: mean of 2 exp.
CDK6/CycD1 = CDK6/CycD1 (Homo sapiens, UniProt Q00534)
ACV-R2A = ACV-R2A (Homo sapiens, UniProt P27037)
PKC-delta = PKC-delta (Homo sapiens, UniProt Q05655)
TRK-C = TRK-C (Homo sapiens, UniProt Q16288)
TLK2 = TLK2 (Homo sapiens, UniProt Q86UE8)
HIPK4 = target: T1, HIPK4 (Homo sapiens, UniProt Q8NE63)
T1 sequence (Q8NE63 1-616): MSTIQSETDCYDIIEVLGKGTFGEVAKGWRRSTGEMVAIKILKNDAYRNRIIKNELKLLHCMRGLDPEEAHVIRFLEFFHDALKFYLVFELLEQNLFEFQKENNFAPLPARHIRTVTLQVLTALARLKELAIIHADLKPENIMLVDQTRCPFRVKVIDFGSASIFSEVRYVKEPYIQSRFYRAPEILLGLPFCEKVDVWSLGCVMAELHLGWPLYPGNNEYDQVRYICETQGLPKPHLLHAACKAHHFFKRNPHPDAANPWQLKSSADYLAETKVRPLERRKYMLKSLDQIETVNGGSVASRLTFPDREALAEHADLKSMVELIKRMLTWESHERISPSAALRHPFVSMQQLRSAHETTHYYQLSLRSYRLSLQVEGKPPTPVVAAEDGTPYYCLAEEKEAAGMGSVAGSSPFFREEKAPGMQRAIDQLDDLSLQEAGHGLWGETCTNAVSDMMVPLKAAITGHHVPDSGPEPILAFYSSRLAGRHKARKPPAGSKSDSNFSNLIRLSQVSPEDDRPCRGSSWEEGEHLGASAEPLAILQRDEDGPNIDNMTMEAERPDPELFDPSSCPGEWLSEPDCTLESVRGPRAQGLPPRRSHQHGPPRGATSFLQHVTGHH

TLK1 = TLK1 (Homo sapiens, UniProt Q9UKI8)
p38-delta = p38-delta (Homo sapiens, UniProt O15264)
STK25 = STK25 (Homo sapiens, UniProt O00506)
BLK = BLK (Homo sapiens, UniProt P51451)
SRPK2 = SRPK2 (Homo sapiens, UniProt P78362)
MERTK = MERTK (Homo sapiens, UniProt Q12866)
ERK7 = ERK7 (Homo sapiens, UniProt Q8TD08)
MYLK3 = MYLK3 (Homo sapiens, UniProt Q32MK0)
CDK16/CycY = CDK16/CycY (Homo sapiens, UniProt Q00536)
ERK1 = ERK1 (Homo sapiens, UniProt P27361)
YES = YES (Homo sapiens, UniProt P07947)
MELK = MELK (Homo sapiens, UniProt Q14680)
MAP3K1 = MAP3K1 (Homo sapiens, UniProt Q13233)
BRSK1 = BRSK1 (Homo sapiens, UniProt Q8TDC3)
PLK1 = PLK1 (Homo sapiens, UniProt P53350)
p38-beta = p38-beta (Homo sapiens, UniProt Q15759)
LIMK1 = LIMK1 (Homo sapiens, UniProt P53667)
Procedure: Gini coefficients were calculated and the Lorenz curve (Fig 3B) was plotted by applying the Microsoft Excel spreadsheet provided by Graczyk [44].
radiometric protein kinase assays.

MAP4K2 = MAP4K2 (Homo sapiens, UniProt Q12851)
PAK4 = PAK4 (Homo sapiens, UniProt O96013)
PDGFR-alpha = PDGFR-alpha (Homo sapiens, UniProt P16234)
MUSK = MUSK (Homo sapiens, UniProt O15146)
PAK2 = PAK2 (Homo sapiens, UniProt Q13177)
EPHB4 = EPHB4 (Homo sapiens, UniProt P54760)
WNK3 = WNK3 (Homo sapiens, UniProt Q9BYP7)
CAMKK1 = CAMKK1 (Homo sapiens, UniProt Q8N5S9)
MARK4 = MARK4 (Homo sapiens, UniProt Q96L34)

Chain of MELK (Q14680 whole entry): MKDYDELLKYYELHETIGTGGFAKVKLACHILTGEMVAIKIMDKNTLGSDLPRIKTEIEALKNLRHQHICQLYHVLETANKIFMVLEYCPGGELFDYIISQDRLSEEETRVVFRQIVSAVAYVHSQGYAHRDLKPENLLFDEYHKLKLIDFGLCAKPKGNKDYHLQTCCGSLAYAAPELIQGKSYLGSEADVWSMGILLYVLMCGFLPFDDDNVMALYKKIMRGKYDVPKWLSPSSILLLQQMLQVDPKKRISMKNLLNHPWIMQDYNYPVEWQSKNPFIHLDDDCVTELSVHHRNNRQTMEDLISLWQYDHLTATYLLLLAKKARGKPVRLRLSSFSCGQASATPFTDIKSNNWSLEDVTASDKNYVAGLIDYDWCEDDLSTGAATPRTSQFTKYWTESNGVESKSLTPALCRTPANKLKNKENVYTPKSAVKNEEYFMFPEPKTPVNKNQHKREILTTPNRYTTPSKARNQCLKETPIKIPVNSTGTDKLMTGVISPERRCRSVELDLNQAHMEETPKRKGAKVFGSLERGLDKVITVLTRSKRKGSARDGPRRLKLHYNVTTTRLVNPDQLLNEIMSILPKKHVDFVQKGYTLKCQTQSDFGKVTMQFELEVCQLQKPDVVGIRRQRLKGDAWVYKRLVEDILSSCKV
Chain of STK25 (O00506 whole entry): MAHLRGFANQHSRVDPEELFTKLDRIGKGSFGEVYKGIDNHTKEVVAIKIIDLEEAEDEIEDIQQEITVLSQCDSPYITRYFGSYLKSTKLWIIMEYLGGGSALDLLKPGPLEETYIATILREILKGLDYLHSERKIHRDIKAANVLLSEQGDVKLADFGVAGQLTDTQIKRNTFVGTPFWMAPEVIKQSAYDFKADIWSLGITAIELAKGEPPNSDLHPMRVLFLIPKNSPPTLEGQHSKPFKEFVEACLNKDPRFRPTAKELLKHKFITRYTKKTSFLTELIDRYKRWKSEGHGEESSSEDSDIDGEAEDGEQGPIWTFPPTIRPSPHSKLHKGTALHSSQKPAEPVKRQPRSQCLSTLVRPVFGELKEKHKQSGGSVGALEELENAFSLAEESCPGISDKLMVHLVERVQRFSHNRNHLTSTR
Chain of TLK1 (Q9UKI8 whole entry): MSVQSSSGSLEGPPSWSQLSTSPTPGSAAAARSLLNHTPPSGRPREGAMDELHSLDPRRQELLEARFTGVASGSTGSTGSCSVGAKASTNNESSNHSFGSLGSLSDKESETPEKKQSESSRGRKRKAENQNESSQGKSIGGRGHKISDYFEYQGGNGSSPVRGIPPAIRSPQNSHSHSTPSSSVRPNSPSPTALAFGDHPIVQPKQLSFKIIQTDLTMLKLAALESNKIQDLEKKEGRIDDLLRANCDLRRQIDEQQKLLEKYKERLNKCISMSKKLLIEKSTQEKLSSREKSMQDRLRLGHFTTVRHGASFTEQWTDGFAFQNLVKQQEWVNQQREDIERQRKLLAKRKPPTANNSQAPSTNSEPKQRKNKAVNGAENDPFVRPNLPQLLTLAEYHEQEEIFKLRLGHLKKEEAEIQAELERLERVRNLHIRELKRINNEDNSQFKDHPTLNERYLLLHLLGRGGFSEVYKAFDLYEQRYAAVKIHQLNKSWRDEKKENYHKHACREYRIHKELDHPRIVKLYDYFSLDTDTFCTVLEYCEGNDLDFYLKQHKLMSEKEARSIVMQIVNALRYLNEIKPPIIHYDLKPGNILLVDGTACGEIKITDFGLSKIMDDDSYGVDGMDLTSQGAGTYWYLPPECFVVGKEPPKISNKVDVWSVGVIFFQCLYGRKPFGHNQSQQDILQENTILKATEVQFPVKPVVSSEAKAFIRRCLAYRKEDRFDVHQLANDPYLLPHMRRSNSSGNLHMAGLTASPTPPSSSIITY
Chain of PLK1 (P53350 whole entry): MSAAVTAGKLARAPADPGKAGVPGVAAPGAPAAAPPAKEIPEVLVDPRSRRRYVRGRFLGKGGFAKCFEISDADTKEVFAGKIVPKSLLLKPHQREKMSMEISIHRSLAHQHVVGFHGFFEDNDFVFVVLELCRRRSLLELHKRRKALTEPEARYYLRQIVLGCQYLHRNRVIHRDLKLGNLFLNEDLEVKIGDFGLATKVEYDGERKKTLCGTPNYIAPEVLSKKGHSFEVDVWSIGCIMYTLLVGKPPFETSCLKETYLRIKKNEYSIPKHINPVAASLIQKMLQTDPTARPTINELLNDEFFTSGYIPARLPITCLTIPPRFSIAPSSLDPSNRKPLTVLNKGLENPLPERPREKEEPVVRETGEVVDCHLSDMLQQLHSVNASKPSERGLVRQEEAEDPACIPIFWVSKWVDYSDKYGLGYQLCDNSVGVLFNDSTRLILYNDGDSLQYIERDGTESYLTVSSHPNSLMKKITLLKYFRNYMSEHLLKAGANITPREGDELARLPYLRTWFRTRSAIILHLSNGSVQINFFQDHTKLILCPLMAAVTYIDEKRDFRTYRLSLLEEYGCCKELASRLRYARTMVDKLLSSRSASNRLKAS
Chain of CDK16/CycY (Q00536 whole entry): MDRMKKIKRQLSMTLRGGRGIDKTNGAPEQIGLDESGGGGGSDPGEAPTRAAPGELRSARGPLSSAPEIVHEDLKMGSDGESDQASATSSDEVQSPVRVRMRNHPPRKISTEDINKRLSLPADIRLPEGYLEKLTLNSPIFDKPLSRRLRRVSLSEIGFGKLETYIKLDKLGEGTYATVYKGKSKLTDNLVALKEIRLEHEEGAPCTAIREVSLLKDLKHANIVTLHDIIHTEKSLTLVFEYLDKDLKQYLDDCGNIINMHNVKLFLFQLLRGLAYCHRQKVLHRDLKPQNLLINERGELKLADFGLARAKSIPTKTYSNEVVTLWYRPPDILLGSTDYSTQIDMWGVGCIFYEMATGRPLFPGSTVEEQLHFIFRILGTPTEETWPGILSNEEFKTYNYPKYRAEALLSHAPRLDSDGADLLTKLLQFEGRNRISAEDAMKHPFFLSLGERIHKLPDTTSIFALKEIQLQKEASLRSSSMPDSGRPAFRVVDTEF
Chain of CDK16/CycY (Q8ND76 whole entry partner): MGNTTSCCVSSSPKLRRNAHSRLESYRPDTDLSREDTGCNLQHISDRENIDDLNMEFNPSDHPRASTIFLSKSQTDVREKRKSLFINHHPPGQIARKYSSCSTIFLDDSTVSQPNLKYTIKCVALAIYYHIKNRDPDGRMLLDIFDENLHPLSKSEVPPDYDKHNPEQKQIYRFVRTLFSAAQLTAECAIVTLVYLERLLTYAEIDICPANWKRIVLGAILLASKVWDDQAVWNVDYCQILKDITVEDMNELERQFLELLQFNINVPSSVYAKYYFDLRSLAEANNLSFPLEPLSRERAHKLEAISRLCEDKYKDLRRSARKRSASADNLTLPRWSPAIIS
Chain of PAK2 (Q13177 whole entry): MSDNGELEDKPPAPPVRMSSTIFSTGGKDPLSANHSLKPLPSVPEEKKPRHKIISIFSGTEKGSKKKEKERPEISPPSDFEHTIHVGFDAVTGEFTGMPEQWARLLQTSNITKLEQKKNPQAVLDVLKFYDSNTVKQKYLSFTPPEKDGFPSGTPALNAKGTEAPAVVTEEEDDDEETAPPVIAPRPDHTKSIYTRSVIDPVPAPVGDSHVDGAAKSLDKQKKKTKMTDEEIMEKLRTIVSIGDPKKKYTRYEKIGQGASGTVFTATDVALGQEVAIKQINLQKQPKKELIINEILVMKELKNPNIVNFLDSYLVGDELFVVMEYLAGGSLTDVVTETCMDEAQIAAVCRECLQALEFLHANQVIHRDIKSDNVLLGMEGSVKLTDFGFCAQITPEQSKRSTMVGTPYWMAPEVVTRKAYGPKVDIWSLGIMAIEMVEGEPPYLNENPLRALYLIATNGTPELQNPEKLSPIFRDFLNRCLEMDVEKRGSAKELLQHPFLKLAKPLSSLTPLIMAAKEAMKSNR
Chain of MERTK (Q12866 21-999): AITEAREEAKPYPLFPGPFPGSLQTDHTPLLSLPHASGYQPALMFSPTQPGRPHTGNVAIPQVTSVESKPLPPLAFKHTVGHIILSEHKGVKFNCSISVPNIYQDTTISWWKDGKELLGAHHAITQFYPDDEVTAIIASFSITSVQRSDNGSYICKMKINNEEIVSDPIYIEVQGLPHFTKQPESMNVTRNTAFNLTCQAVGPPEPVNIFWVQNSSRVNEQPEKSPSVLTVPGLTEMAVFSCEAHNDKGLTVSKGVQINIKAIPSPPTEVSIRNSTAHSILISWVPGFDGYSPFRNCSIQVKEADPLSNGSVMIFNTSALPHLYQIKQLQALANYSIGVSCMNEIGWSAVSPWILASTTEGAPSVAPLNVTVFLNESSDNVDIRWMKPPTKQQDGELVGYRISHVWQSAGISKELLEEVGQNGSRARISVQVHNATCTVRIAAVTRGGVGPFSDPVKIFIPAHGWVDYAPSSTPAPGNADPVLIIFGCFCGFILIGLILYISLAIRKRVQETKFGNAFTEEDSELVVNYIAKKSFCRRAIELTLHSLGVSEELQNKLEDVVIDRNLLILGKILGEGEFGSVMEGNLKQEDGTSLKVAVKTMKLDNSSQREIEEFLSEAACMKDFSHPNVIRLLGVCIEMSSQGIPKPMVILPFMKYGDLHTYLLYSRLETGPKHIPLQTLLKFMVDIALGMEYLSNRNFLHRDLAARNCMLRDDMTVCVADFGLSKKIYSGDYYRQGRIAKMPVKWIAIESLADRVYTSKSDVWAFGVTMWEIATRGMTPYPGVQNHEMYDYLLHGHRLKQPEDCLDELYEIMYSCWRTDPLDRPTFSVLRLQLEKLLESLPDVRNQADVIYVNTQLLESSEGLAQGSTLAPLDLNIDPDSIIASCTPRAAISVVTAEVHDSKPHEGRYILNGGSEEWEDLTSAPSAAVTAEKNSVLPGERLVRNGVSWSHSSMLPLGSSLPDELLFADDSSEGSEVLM

residual activity at 1 µM, Mean (CDK6/CycD1): 95 % of control | residual activity at 1 µM, Mean (ACV-R2A): 97 % of control | residual activity at 1 µM, Mean (PKC-delta): 105 % of control | residual activity at 1 µM, Mean (TRK-C): 87 % of control | residual activity at 1 µM, Mean (TLK2): 108 % of control | residual activity at 1 µM, Mean (HIPK4): 88 % of control | residual activity at 1 µM, Mean (TLK1): 91 % of control | residual activity at 1 µM, Mean (p38-delta): 89 % of control | residual activity at 1 µM, Mean (STK25): 96 % of control | residual activity at 1 µM, Mean (BLK): 100 % of control | residual activity at 1 µM, Mean (SRPK2): 106 % of control | residual activity at 1 µM, Mean (MERTK): 91 % of control | residual activity at 1 µM, Mean (MYLK3): 94 % of control | residual activity at 1 µM, Mean (CDK16/CycY): 90 % of control | residual activity at 1 µM, Mean (ERK1): 87 % of control | residual activity at 1 µM, Mean (YES): 83 % of control | residual activity at 1 µM, Mean (MELK): 87 % of control | residual activity at 1 µM, Mean (MAP3K1): 97 % of control | residual activity at 1 µM, Mean (BRSK1): 107 % of control | residual activity at 1 µM, Mean (PLK1): 93 % of control | residual activity at 1 µM, Mean (p38-beta): 105 % of control | residual activity at 1 µM, Mean (LIMK1): 57 % of control | residual activity at 1 µM, Mean (MAP4K2): 93 % of control | residual activity at 1 µM, Mean (PAK4): 94 % of control | residual activity at 1 µM, Mean (PDGFR-alpha): 102 % of control | residual activity at 1 µM, Mean (MUSK): 101 % of control | residual activity at 1 µM, Mean (PAK2): 105 % of control | residual activity at 1 µM, Mean (EPHB4): 95 % of control | residual activity at 1 µM, Mean (WNK3): 94 % of control | residual activity at 1 µM, Mean (CAMKK1): 89 % of control | residual activity at 1 µM, Mean (MARK4): 104 % of control
Compound: COc1ccc2c3ccnc(Cl)c3n(CC#N)c2c1 [AnnH75]
residual activity at 1 µM, Mean (ERK7): 59 % of control
